In patent US20250074907A1, “INHIBITORS OF SARS-COV-2” (THE TEXAS A&M UNIVERSITY SYSTEM, priority 2021, published 2025):

The compounds below were run against main protease (Mpro) of SARS-CoV-2 (Severe acute respiratory syndrome coronavirus 2 (2019-nCoV) (SARS-CoV-2), UniProt P0DTD1) (assay: Enzyme IC50 of SARS-CoV-2 inhibitors). Conditions: Table 1, Example SARS-COV-2 inhibitors.
Assay type: biochemical
`Cc1cncc(-c2nnc3n2CCN(C(c2ccccc2)c2ccccc2)C3)c1` [PKJ-585] gave an IC50 of 5800 nM.

Same assay, conditions: Table 2, List of compounds
Work on `Cc1cncc(C(=O)N2CCC(=C3c4ccccc4C[S+]([O-])c4ccccc43)CC2)c1` (centres unmarked) [NZ- 826, (5-methyl-3-pyridyl)-[4-(5-oxo-6H-benzo[c][1]benzothiepin-11-ylidene)-1-piperidyl]methanone] yielded an IC50 of 60 to 70 nM.
For `Cc1cncc(C(=O)N2CCC(=C3c4ccccc4CS(=N)(=O)c4ccccc43)CC2)c1` (centres unmarked) [NZ- 827, [4-(5-imino-5-oxo-6H-benzo[c][1]benzothiepin-11-ylidene)-1-piperidyl]-(5-methyl-3-pyridyl)methanone], the IC50 was 57 nM.
For `O=C(c1cncc2cc[nH]c12)N1CCC(=C2c3ccccc3CSc3ccccc32)CC1` [NZ- 828, [4-(6H-benzo[c][1]benzothiepin-11-ylidene)-1-piperidyl]-(1H-pyrrolo[3,2-c]pyridin-7-yl)methanone], the IC50 was 21 to 33 nM.
In the case of `O=C(c1cncc2cc[nH]c12)N1CCC(=C2c3ccccc3C[S+]([O-])c3ccccc32)CC1` (centres unmarked) [NZ- 829, [4-(5-oxo-6H-benzo[c][1]benzothiepin-11-ylidene)-1-piperidyl]-(1H-pyrrolo[3,2-c]pyridin-7-yl)methanone], the IC50 is reported as 15 to 31 nM.
Work on `N=S1(=O)Cc2ccccc2C(=C2CCN(C(=O)c3cncc4cc[nH]c34)CC2)c2ccccc21` (centres unmarked) [NZ- 830, [4-(5-imino-5-oxo-6H-benzo[c][1]benzothiepin-11-ylidene)-1-piperidyl]-(1H-pyrrolo [3,2-c]pyridin-7-yl)methanone] yielded an IC50 of 32 to 39 nM.
For `Cc1cncc(C(=O)N2CCN(C3c4ccccc4CS(=O)(=O)c4ccc(F)cc43)CC2)c1` (centres unmarked) [NZ- 831, [4-(2-fluoro-5,5-dioxo-6,11-dihydrobenzo[c][1]benzothiepin-11-yl)piperazin-1-yl]-(5-methyl-3-pyridyl)methanone], the IC50 was 45 nM.
`O=C(c1cncc2cc[nH]c12)N1CCN(C2c3ccccc3CS(=O)(=O)c3ccc(F)cc32)CC1` (centres unmarked) [NZ- 832, [4-(2-fluoro-5,5-dioxo-6,11-dihydrobenzo[c][1]benzothiepin-11-yl)piperazin-1-yl]-(1H-pyrrolo[3,2-c]pyridin-7-yl)methanone] showed an IC50 of 18 nM.
Compound `Cc1cncc(C(=O)N2CCN(C3c4cc(F)ccc4CS(=O)(=O)c4ccccc43)CC2)c1` (centres unmarked) [NZ- 833, [4-(9-fluoro-5,5-dioxo-6,11-dihydrobenzo[c][1]benzothiepin-11-yl)piperazin-1-yl]-(5-methyl-3-pyridyl)methanone] has an IC50 of 66 to 130 nM.
`O=C(c1cncc2cc[nH]c12)N1CCN(C2c3cc(F)ccc3CS(=O)(=O)c3ccccc32)CC1` (centres unmarked) [NZ- 834, [4-(9-fluoro-5,5-dioxo-6,11-dihydrobenzo[c][1]benzothiepin-11-yl)piperazin-1-yl]-(1H-pyrrolo[3,2-c]pyridin-7-yl)methanone] was tested, and the IC50 was 14 to 47 nM.
In the case of `Cc1cncc(C(=O)N2CCC(=C3c4ccccc4CC(=O)c4sccc43)CC2)c1` [NZ- 835, 2-[1-(5-methylpyridine-3-carbonyl)-4-piperidylidene]-6-thiatricyclo[8.4.0.03,7]tetradeca-1(10),3(7),4,11,13-pentaen-8-one], the IC50 is reported as 27 to 48 nM.
Compound `O=C1Cc2ccccc2C(=C2CCN(C(=O)c3cncc4cc[nH]c34)CC2)c2ccsc21` [NZ- 836] has an IC50 of 9 to 20 nM.
Work on `O=C(c1cncc2cc[nH]c12)N1CCC(=C2c3ccccc3C3OC3c3ccccc32)CC1` (centres unmarked) [NZ- 838] yielded an IC50 of 91 nM.
`O=C1Cc2ccccc2C(=C2CCN(C(=O)c3cncc4cc[nH]c34)CC2)c2ccccc21` [NZ- 839] gave an IC50 of 18 nM.
